Results reported in patent US20030055106A1, “Therapeutic uses of peroxometallic compounds” (priority 1999, published 2003).

Legend:
HUVECs = assay: HUVEC differentiation and organization into tubular-like structures in fibrin matrix; format: cell-based, Human; conditions: 21 days in culture
Experimental: Alternatively, HUVECs cultured in a fibrin matrix can form 3-dimensional tubular-like structures in the presence of serum (103). This assay was performed in the presence of either bpV(phen), bpv(pic) or vanadate to assess the influence of each one of these compounds on HUVEC differentiation and organization (Table 1). HUVECs were seeded on the bottom of gelatin-coated wells at high density to provide a confluent monolayer at 48 hours.
Then, 50 000 HUVECs/ml were embedded in fibrinogen solution prior to polymerization. The fibrin matrix was covered with culture medium containing the molecule to be tested, while culture medium without any of these molecules served as controls. Cell behavior was observed periodically by phase contrast microscopy.

Rat aorta rings = assay: Rat aortic ring assay (cell/microvessel migration in fibrin gel); format: cell-based
Source text: FIG. 3: Micrographs of the cell migration from aortic rings embedded in fibrin (×12).
FIG. 4: Quantification of the cell migration from aortic rings in the presence of orthovanadate (plain bars); bpV(phen) (light gray bars); and bpV(pic) (dark gray bars). The control appears as an empty bar. Means and standard errors of the means are presented.
Rat aorta rings were embedded in fibrin matrix as previously described (107). Thoracic aortas excised from adult rats were rinsed in Hank's balanced salt solution (HBSS), and cleansed of periadventitial. One-mm long aortic rings were sectioned and rinsed in culture medium. Each of the aortic rings were then embedded in fibrin gel matrix. Migration of microvessels in fibrin gel was quantified by measuring the distance from the external surface of rat aortic rings towards the migrating vessels. Measurements were performed at day 15 by digitizing morphometry with a NIH image analysis system (FIGS. 3 and 4).

ETs (ET-1, ET-2, ET-3) = assay: Plasma endothelin levels after insulin (RIA); format: in vivo; conditions: rats, bpV(phen) 0.5 mg/100 g b.w. i.p. 16 hours before insulin
Experimental: The data presented in Table III show the effect of bpV(phen) on the plasmatic levels of ETs. […] Two minutes following insulin administration (1.5 μg/100 g b.w, or vehicle), the plasma levels of ETs were determined. Insulin administration induced a strong increase of seric ET concentration (54). […] In addition, bpV(phen) decreased the insulin-stimulated levels of plasmatic ETs below control levels. […] ETs (ET-1, ET-2, ET-3) were measured by RIA (Amersham kit RPA 555) after lyophilization and extraction on C2 columns (500 mg). Results are mean ±SEM, p<0.0209, control (n=4) vs Insulin, pV (n=3).

[1] = system: PC3 prostate cancer cells; assay: In vitro collagen-fibrin tumor progression model, PC-3; format: cell-based, human; conditions: renewed daily, 15 days
Experimental: FIG. 11: Illustration of the antitumor activity of bpV(phen) in vitro using PC3 prostate cancer cells. Collagen gels containing the PC3 cells were prepared according to the method of Esdale and Bard (1972). Briefly, stock collagen solution (3.5 mg/ml in acetic acid 0.02N; Rat tail) was added to a mixture composed of culture medium (5×), fetal bovine serum (FBS), bicarbonate (0.26M), and was neutralized with 0.1N NaOH. A cell suspension (1.42×10^6 cells/ml) was mixed into the collagen-medium mixture to obtain a final concentration of 2.5×10^5 cells/ml.
A DMEM medium, having a normal concentration of glucose and without phenol red, was used. After gelification (within 1 h) of the collagen mixture containing the cells, the gels were removed from their culture wells (mould) and interwoven into a receptor hole prepared in a fibrin gel, as previously described (103). The fibrin gel was made from a 0.3% fibrinogen solution in Hank's balanced salt solution. Fibrin was allowed to polymerize with thrombin (stock solution at 1.75 mg/ml) at a ratio of 1:003 v/v fibrin to thrombin. The collagen-fibrin complexes were then covered with serum-supplemented medium according to the cell types. An inhibitor of plasminogen activator (Trasylol, Parke Davies) was added into the medium at 10 μl/ml (100U/ml).
Cell behavior was periodically monitored over 15 days of culture. […]

[2] = system: Human prostate adenocarcinoma (PC-3); assay: Human prostate adenocarcinoma (PC-3) xenograft; format: in vivo, Male Balb/c nude (nu/nu) mice; conditions: 5 mg/Kg daily i.p. for 39 days
Experimental: B) Human prostate adenocarcinoma (PC-3) in the athymic mice: Male Balb/c nude (nu/nu) were purchased at 4-6 weeks of age from Charles Rivers Inc. Mice were housed under pathogen free conditions and maintained on a 12-h light/12-h dark cycle with food and water supplied ad libitum. The hormono-independent PC3 human tumor cells were from the American Tissue Cuture Collection. Cells were grown in DMEM in the presence of 5% foetal bovine serum. Cells were collected at confluence, included in a matrix (1.0×10^6 cells/ml; 30% Matrigel). An equal volume of the tumor cell suspension was injected s.c. in the right flank of each mouse. After 5 days, a palpable tumor of approximately 5×5 mm was detected in the inoculated animals. Mice with palpable tumors were divided into five groups (18 mice/group) for the treatment study. All mice in each treatment group had tumor of similar size at the start of treatment. For administration to mice, bpV(phen) was dissolved and diluted in phosphate buffered saline (PBS) at pH 7.4. A 5 mg/Kg dose of bpV(phen) was administed daily by i.p. for 39 days. Taxol was used as a positive control at the dose of 20 mg/Kg and injected i.p. at every three days. A control group of 10 animals was injected with PBS. The injection volume was kept constant at […]. The mice were weighed three times during the experimental period to assess toxicity of the treatment, and the tumors were measured twice weekly using calipers. Tumor volume was calculated from the two-dimensional caliper measurements using the following formula: tumor volume=length×(width)^2×0.53.
The treatment period was completed after 39 days, when the PBS treated group of mice had large tumors, requiring that the animals be sacrificed according to the Animal Care Procedures. […]
Statistical analysis: Tumor growth curves are presented in terms of treatment group means and SEs. Statistical significance of treatment effect was assessed by repeated measures ANOVA after applying a power transformation to equalize residual variances and linearize the tumor growth curves.

Structure (SMILES): O.O.O.OO.OO.[K+].[OH-].[V].c1cnc2c(c1)ccc1cccnc12 [bpV(phen), potassium bisperoxo(1,10-phenanthroline)oxovanadate]
- structures observed by phase contrast microscopy (HUVECs; 1 μM): cord-like structures (or cords), tube-like structures (or tubes) and stellate structures (or Stell.struct.) were observed
- structures observed by phase contrast microscopy (HUVECs; 2 and 3.5 μM): fragmented cord-like structures were apparent
- cell migration from aortic rings (Rat aorta rings; 1 μM, compared to control): impaired
- cell migration from aortic rings (Rat aorta rings; 3.5 μM): strong inhibition
- insulin-induced increase of seric ET concentration (ETs (ET-1, ET-2, ET-3)): completely abolished
- Plasma endothelins (ETs (ET-1, ET-2, ET-3); two minutes after insulin 1.5 μg/100 g b.w., mean ±SEM, n=3): 77.68 ± 3.08 pg/mL
- progression of PC-3 cells (secondary tumors, migration front) ([1]; 2 μM): a decrease in the size of the secondary tumor was observed
- progression of PC-3 cells (secondary tumors, migration front) ([1]; 5 and 10 μM): there was no migration front and there were no secondary tumors
- deaths [2]: No death
- suppression of the final tumor compared with PBS-treated control animals [2]: 59%
- body weight gained relative to weight at the initiation of the treatment ([2]; average): 1.7 grams
